Source: US12077503B2, “Substituted cyclic amides and their use as herbicides” (FMC CORPORATION, priority 2015, dated 2024)

How the values were obtained:
Assay type in all cases: in vivo
[1] = system: wheat (Triticum aestivum); experiment: Test A postemergence; settings: postemergence; for Wheat plant response rating: 125 g ai/ha, visual injury rating on 0 to 100 scale (0 no effect, 100 complete control), approx. 10 d; for Plant response rating, Wheat: 500 g ai/ha, 0 to 100 scale, 0 no effect, 100 complete control
Outline: (§1)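 Visual injury, scored on a 0–100 scale relative to untreated controls, was recorded about 10 d after application. Treatments were a preemergence soil spray over planted seeds or a postemergence spray on plants at the one- to two-leaf stage, 2 to 10 cm tall, all in loam soil–sand blend in the greenhouse.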

[2] = system: giant foxtail (Setaria faberii); experiment: Test A postemergence; settings: postemergence; for Foxtail, Giant plant response rating: 125 g ai/ha, visual injury rating on 0 to 100 scale (0 no effect, 100 complete control), approx. 10 d; for Plant response rating, Foxtail, Giant: 500 g ai/ha, 0 to 100 scale, 0 no effect, 100 complete control
Outline: as §1

[3] = system: pigweed (Amaranthus retroflexus); experiment: Test A postemergence; settings: postemergence; for Pigweed plant response rating: 125 g ai/ha, visual injury rating on 0 to 100 scale (0 no effect, 100 complete control), approx. 10 d; for Plant response rating, Pigweed: 500 g ai/ha, 0 to 100 scale, 0 no effect, 100 complete control
Outline: as §1

[4] = system: ragweed (common ragweed, Ambrosia elatior); experiment: Test A postemergence; settings: postemergence; for Ragweed plant response rating: 125 g ai/ha, visual injury rating on 0 to 100 scale (0 no effect, 100 complete control), approx. 10 d; for Plant response rating, Ragweed: 500 g ai/ha, 0 to 100 scale, 0 no effect, 100 complete control
Outline: as §1

[5] = system: barnyardgrass (Echinochloa crus-galli); experiment: Test A postemergence; settings: postemergence; for Barnyardgrass plant response rating: 125 g ai/ha, visual injury rating on 0 to 100 scale (0 no effect, 100 complete control), approx. 10 d; for Plant response rating, Barnyardgrass: 500 g ai/ha, 0 to 100 scale, 0 no effect, 100 complete control
Outline: as §1

[6] = system: corn (Zea mays); experiment: Test A postemergence; settings: postemergence; for Corn plant response rating: 125 g ai/ha, visual injury rating on 0 to 100 scale (0 no effect, 100 complete control), approx. 10 d; for Plant response rating, Corn: 500 g ai/ha, 0 to 100 scale, 0 no effect, 100 complete control
Outline: as §1

[7] = system: Kochia (Kochia scoparia); experiment: Test A postemergence; settings: postemergence; for Kochia plant response rating: 125 g ai/ha, visual injury rating on 0 to 100 scale (0 no effect, 100 complete control), approx. 10 d; for Plant response rating, Kochia: 500 g ai/ha, 0 to 100 scale, 0 no effect, 100 complete control
Outline: as §1

[8] = system: ryegrass, Italian (Italian ryegrass, Lolium multiflorum); experiment: Test A postemergence; settings: postemergence; for Ryegrass, Italian plant response rating: 125 g ai/ha, visual injury rating on 0 to 100 scale (0 no effect, 100 complete control), approx. 10 d; for Plant response rating, Ryegrass, Italian: 500 g ai/ha, 0 to 100 scale, 0 no effect, 100 complete control
Outline: as §1

[9] = system: blackgrass (Alopecurus myosuroides); experiment: Test A postemergence; settings: postemergence; for Blackgrass plant response rating: 125 g ai/ha, visual injury rating on 0 to 100 scale (0 no effect, 100 complete control), approx. 10 d; for Plant response rating, Blackgrass: 500 g ai/ha, 0 to 100 scale, 0 no effect, 100 complete control
Outline: as §1

[10] = system: Galium (catchweed bedstraw, Galium aparine); experiment: Test A postemergence; settings: postemergence; for Galium plant response rating: 125 g ai/ha, visual injury rating on 0 to 100 scale (0 no effect, 100 complete control), approx. 10 d; for Plant response rating, Galium: 500 g ai/ha, 0 to 100 scale, 0 no effect, 100 complete control
Outline: as §1

[11] = system: giant foxtail (Setaria faberii); experiment: Test A preemergence; settings: for Plant response rating, Foxtail, Giant: 125 g ai/ha, preemergence, 0 to 100 scale (0 no effect, 100 complete control); for Foxtail, Giant plant response rating (0 to 100 scale, 0 is no effect, 100 is complete control): Preemergence, 500 g ai/ha, visual injury approx. 10 d
Outline: as §1

[12] = system: pigweed (Amaranthus retroflexus); experiment: Test A preemergence; settings: for Plant response rating, Pigweed: 125 g ai/ha, preemergence, 0 to 100 scale (0 no effect, 100 complete control); for Pigweed plant response rating (0 to 100 scale, 0 is no effect, 100 is complete control): Preemergence, 500 g ai/ha, visual injury approx. 10 d
[13] = system: ragweed (common ragweed, Ambrosia elatior); experiment: Test A preemergence; settings: for Plant response rating, Ragweed: 125 g ai/ha, preemergence, 0 to 100 scale (0 no effect, 100 complete control); for Ragweed plant response rating (0 to 100 scale, 0 is no effect, 100 is complete control): Preemergence, 500 g ai/ha, visual injury approx. 10 d
Outline: as §1

[14] = system: barnyardgrass (Echinochloa crus-galli); experiment: Test A preemergence; settings: for Plant response rating, Barnyardgrass: 125 g ai/ha, preemergence, 0 to 100 scale (0 no effect, 100 complete control); for Barnyardgrass plant response rating (0 to 100 scale, 0 is no effect, 100 is complete control): Preemergence, 500 g ai/ha, visual injury approx. 10 d
Outline: as §1

[15] = system: Kochia (Kochia scoparia); experiment: Test A preemergence; settings: for Plant response rating, Kochia: 125 g ai/ha, preemergence, 0 to 100 scale (0 no effect, 100 complete control); for Kochia plant response rating (0 to 100 scale, 0 is no effect, 100 is complete control): Preemergence, 500 g ai/ha, visual injury approx. 10 d
Outline: as §1

[16] = system: ryegrass, Italian (Italian ryegrass, Lolium multiflorum); experiment: Test A preemergence; settings: for Plant response rating, Ryegrass, Italian: 125 g ai/ha, preemergence, 0 to 100 scale (0 no effect, 100 complete control); for Ryegrass, Italian plant response rating (0 to 100 scale, 0 is no effect, 100 is complete control): Preemergence, 500 g ai/ha, visual injury approx. 10 d
Outline: as §1

[17] = system: rice (Oryra sativa); experiment: Test B flooded paddy test; settings: Flood, 250 g ai/ha; 0 to 100 scale where 0 is no effect and 100 is complete control; 13 to 15 d
Outline: (§2)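 Percent control, visually estimated after 13–15 d in the greenhouse on a 0–100 basis, compares treated pots with untreated ones; compound was put into paddy water 3 cm above the soil when plants had two leaves.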

[18] = system: ducksalad (Heteranthera limosa); experiment: Test B flooded paddy test; settings: Flood, 250 g ai/ha; 0 to 100 scale where 0 is no effect and 100 is complete control; 13 to 15 d
Outline: as §2

[19] = system: barnyardgrass (Echinochloa crus-galli); experiment: Test B flooded paddy test; settings: Flood, 250 g ai/ha; 0 to 100 scale where 0 is no effect and 100 is complete control; 13 to 15 d
Outline: as §2

[20] = system: sedge, umbrella (small-flower umbrella sedge, Cyperus difformis); experiment: Test B flooded paddy test; settings: Flood, 250 g ai/ha; 0 to 100 scale where 0 is no effect and 100 is complete control; 13 to 15 d
Outline: as §2

COc1c(F)ccc(NC(=O)C2C(=O)N(C)CC2c2cccc(OC(F)(F)C(F)F)c2)c1F (stereo not drawn) [Compound 430]
Wheat plant response rating [1]: 20
Plant response rating, Wheat [1]: 50
Foxtail, Giant plant response rating [2]: 80
Plant response rating, Foxtail, Giant [2]: 80
Pigweed plant response rating [3]: 30
Plant response rating, Pigweed [3]: 50
Ragweed plant response rating [4]: 0
Plant response rating, Ragweed [4]: 30
Barnyardgrass plant response rating [5]: 80
Plant response rating, Barnyardgrass [5]: 90
Corn plant response rating [6]: 50
Plant response rating, Corn [6]: 70
Kochia plant response rating [7]: 20
Plant response rating, Kochia [7]: 50
Ryegrass, Italian plant response rating [8]: 30
Plant response rating, Ryegrass, Italian [8]: 50
Blackgrass plant response rating [9]: 20
Plant response rating, Blackgrass [9]: 70
Galium plant response rating [10]: 50
Plant response rating, Galium [10]: 60
Plant response rating, Foxtail, Giant [11]: 90
Foxtail, Giant plant response rating (0 to 100 scale, 0 is no effect, 100 is complete control) [11]: 90
Plant response rating, Pigweed [12]: 0
Pigweed plant response rating (0 to 100 scale, 0 is no effect, 100 is complete control) [12]: 50
Plant response rating, Ragweed [13]: 30
Ragweed plant response rating (0 to 100 scale, 0 is no effect, 100 is complete control) [13]: 50
Plant response rating, Barnyardgrass [14]: 80
Barnyardgrass plant response rating (0 to 100 scale, 0 is no effect, 100 is complete control) [14]: 90
Plant response rating, Kochia [15]: 30
Kochia plant response rating (0 to 100 scale, 0 is no effect, 100 is complete control) [15]: 70
Plant response rating, Ryegrass, Italian [16]: 40
Ryegrass, Italian plant response rating (0 to 100 scale, 0 is no effect, 100 is complete control) [16]: 50
Plant response rating, Rice [17]: 20
Plant response rating, Ducksalad [18]: 100
Plant response rating, Barnyardgrass [19]: 65
Plant response rating, Sedge, Umbrella [20]: 0

CN1CC(c2ccc(Cl)cc2)C(C(=O)Nc2ccccc2F)C1=O (stereo not drawn) [Compound 433]
Wheat plant response rating [1]: 30
Plant response rating, Wheat [1]: 60
Foxtail, Giant plant response rating [2]: 80
Plant response rating, Foxtail, Giant [2]: 80
Pigweed plant response rating [3]: 20
Plant response rating, Pigweed [3]: 20
Ragweed plant response rating [4]: 0
Plant response rating, Ragweed [4]: 50
Barnyardgrass plant response rating [5]: 90
Plant response rating, Barnyardgrass [5]: 90
Corn plant response rating [6]: 0
Plant response rating, Corn [6]: 30
Kochia plant response rating [7]: 40
Plant response rating, Kochia [7]: 50
Ryegrass, Italian plant response rating [8]: 30
Plant response rating, Ryegrass, Italian [8]: 60
Blackgrass plant response rating [9]: 30
Plant response rating, Blackgrass [9]: 40
Galium plant response rating [10]: 50
Plant response rating, Galium [10]: 50
Plant response rating, Foxtail, Giant [11]: 90
Foxtail, Giant plant response rating (0 to 100 scale, 0 is no effect, 100 is complete control) [11]: 90
Plant response rating, Pigweed [12]: 20
Pigweed plant response rating (0 to 100 scale, 0 is no effect, 100 is complete control) [12]: 70
Plant response rating, Ragweed [13]: 70
Ragweed plant response rating (0 to 100 scale, 0 is no effect, 100 is complete control) [13]: 60
Plant response rating, Barnyardgrass [14]: 90
Barnyardgrass plant response rating (0 to 100 scale, 0 is no effect, 100 is complete control) [14]: 90
Plant response rating, Kochia [15]: 70
Kochia plant response rating (0 to 100 scale, 0 is no effect, 100 is complete control) [15]: 80
Plant response rating, Ryegrass, Italian [16]: 20
Ryegrass, Italian plant response rating (0 to 100 scale, 0 is no effect, 100 is complete control) [16]: 60
Plant response rating, Rice [17]: 0
Plant response rating, Ducksalad [18]: 98
Plant response rating, Barnyardgrass [19]: 70
Plant response rating, Sedge, Umbrella [20]: 0
